From US7115586B2, “Non-inclusion cyclodextrin complexes” (Decode Genetics EHF., priority 2001, dated 2006)
Converted amounts (≈) assume the structure as drawn. “And” between values parts separate entries of the source, which are not always exact repeats. Equal entries are not always repeated. Structures can show the parent of a compound that is named as a salt. Where two headings read alike, the source gives them in different places.

Experiments:
[1] = Viscosity (Brookfield digital viscometer); format: physicochemical; conditions: 20% (w/v) HPβCD solution
[2] = Phase-solubility in aqueous HPβCD solutions
[3] = Experiment A: solubility of alprazolam and diflunisal sodium salt in 10% HPβCD; conditions: for solubility at 7 days: 22.5 °C, pH 8.36, aqueous with cosolvent or surfactant or cyclodextrin, thermodynamic from solid
physchem [4] = conditions: 22.5 °C, pH 6, aqueous buffer, thermodynamic from solid
[5] = Phase-solubility of cholesterol in aqueous cyclodextrin solutions; format: physicochemical; conditions: aqueous solutions of various β-cyclodextrin derivatives (RMβCD, HPβCD, SBEβCD, TMAβCD, CMβCD), ambient temperature (FIG. 7)
Source text: This left a very thin layer of cholesterol on the inner surface of the vials.

[6] = octanol/water partition coefficient, unionized form; cited from earlier work
physchem [7] = conditions: 22.5 °C, pH 8.36, aqueous with cosolvent or surfactant or cyclodextrin, thermodynamic from solid
[8] = Job's plots (continuous variation, NMR and UV); format: physicochemical; conditions: sodium salts, buffered solutions (FIG. 3)
Protocol: The total molar concentration (i.e., the combined concentration of drug and HPβCD in moles per liter) was kept constant, but the mole fraction of HPβCD (i.e., [HPβCD]/([drug]+[HPβCD])) were varied from 0.1 to 0.9. The buffer salts were dissolved in 30% (v/v) D2O in water and appropriate amounts of drug and HPβCD were dissolved in the buffer solution. […] […]. The NMR spectra were recorded at 297 K on a Bruker AZ250P 250 MHZ spectrometer (USA). The UV-detector used was a Perkin-Elmer Lambda 3A Spectrophotometer (USA).

[9] = pure water at approximately 25° C.; cited from earlier work

## 2-Hydroxypropyl-β-cyclodextrin
[1]
  viscosity: 2.10 cPoise

## Cc1nnc2n1-c1ccc(Cl)cc1C(c1ccccc1)=NC2 [Alprazolam]
[2]; 22.5 °C, pH 6, aqueous buffer, thermodynamic from solid
  solubility at 7 days: 200 µM (≈ 61.8 µg/mL)
[2]; HPβCD containing pH 6.0 aqueous phosphate buffer solution, no second drug (FIG. 4)
  type of phase-solubility diagram: AL-type
[2]; aqueous HPβCD solutions saturated with the sodium salt of diflunisal (FIGS. 5, 6)
  type of phase-solubility diagram: AL-type
[2]; in the presence of ibuprofen (FIG. 4A)
  type of phase-solubility diagram: AL-type
[3]; 10% HPβCD saturated with diflunisal vs 10% HPβCD alone
  increase in solubility: 108%
[3]; 10% (w/v) HPβCD solution previously saturated with diflunisal
  solubility at 7 days: 1230 µg/mL and 3980 µM
[3]; 10% aqueous HPβCD solution, unbuffered, room temperature
  solubility at 7 days: 590 µg/mL and 1910 µM

## CC/C(=C(/CC)c1ccc(O)cc1)c1ccc(O)cc1 [Diethylstilbestrol]
pH 6
  Complexation efficiency (slope/(1 − slope)): 2
  Slope of the phase-solubility diagram: 0.71
  shape of phase-solubility diagram: non-linear
  type of phase-solubility diagram: AL-type
Physchem [4]
  solubility at 7 days: 10 µM (≈ 2.68 µg/mL)

## CC(C)CCC[C@@H](C)[C@H]1CC[C@H]2[C@@H]3CC=C4C[C@@H](O)CC[C@]4(C)[C@H]3CC[C@]12C [cholesterol]
[5]
  type of phase-solubility diagram: AP-type
[6]
  log P: 8.5

## CC(C)CCC[C@@H](C)[C@H]1CC[C@H]2C3=CC=C4C[C@@H](O)CC[C@]4(C)[C@H]3CC[C@]12C [dehydrocholesterol]
[6]
  log P: 7.8

## O=C(O)c1cc(-c2ccc(F)cc2F)ccc1O [diflunisal]
Physchem [7]
  solubility at 7 days: ~47 mg/mL (≈ 188 mM)
[6]
  log P: 4.4
pH 6
  slope of phase-solubility diagram: 1.1
  type of phase-solubility diagram: AL-type
[8]
  mole fraction of HPβCD in the complex (Job's plots): 0.5

## O=C(O)Cc1ccccc1Oc1ccc(Cl)cc1Cl [fenclofenac]
[6]
  log P: 4.8

## CC(C)Cc1ccc(C(C)C(=O)[O-])cc1.[Na+] (stereo not shown) [ibuprofen sodium salt]
pH 6.12
  slope of phase-solubility diagram: 1.12
pH 6.28
  slope of phase-solubility diagram: 1.17
pH 6.72
  slope of phase-solubility diagram: 1.12

## CC(C)Cc1ccc(C(C)C(=O)O)cc1 (stereo not shown) [ibuprofen]
pH 6
  effect of increase in ionic strength on solubility: does not effect
  slope of phase-solubility diagram: 1.2
  type of phase-solubility diagram: AL-type
[8]
  mole fraction of HPβCD in the complex (Job's plots): 0.5

## O=C(O)c1cc(-c2ccc(F)cc2F)ccc1O [sodium salt of diflunisal, diflunisal sodium salt]
pH 8.36
  slope of phase-solubility diagram: 1.1
  type of phase-solubility diagram: AL-type

## Oc1cc(Cl)ccc1Oc1ccc(Cl)cc1Cl [triclosan]
[6]
  log P: 4.8

## carotene
[6]
  log P: > 10

## β-cyclodextrin sulfobutyl ether sodium salt
[9]
  Solubility in water: >500 mg/mL
